# Results filed as inconclusive are left out.
# System: nude mice, A549 intrarenal xenograft, tumor weight change
# Assay: NCI In Vivo Anticancer Drug Screen. Data for tumor model A549 Human Adenocarcinoma of Lung with characteristics of Type II Alveolar Epithelial cells (intrarenal inoculation) in NU/NU BALB/C (nude) mice
# Conditions: endpoint: mean tumor weight change, higher = larger tumour
# Method: The antitumor activity of compounds was measured in mice bearing transplantable tumors. Survival or tumor size were measured and the results are expressed as the measurement made in the treated group (T) divided by the measurement made in the vehicle treated control group (C). The tumor model used in this assay is A549 Human Adenocarcinoma of Lung with characteristics of Type II Alveolar Epithelial cells (intrarenal inoculation) in NU/NU BALB/C (nude) mice
smiles,measurement,setting,value
Nc1ncnc2c1nc(Cl)n2C1OC2COP(=O)(O)OC2C1O (stereo not given),T/C,"dose: 25.0 mg/kg/injection, schedule: Q04DX003 (ip), vehicle: water",198 % of control
same,T/C,"dose: 50.0 mg/kg/injection, schedule: Q04DX003 (ip), vehicle: water",85 % of control
Cc1ccc(C2=CSC3=NCCN23)cc1Cl,T/C,"dose: 2.5 mg/kg/injection, schedule: Q04DX003 (ip), vehicle: suspension in saline",88 % of control
same,T/C,"dose: 5.0 mg/kg/injection, schedule: Q04DX003 (ip), vehicle: saline",119 % of control
same,T/C,"dose: 5.0 mg/kg/injection, schedule: Q04DX003 (ip), vehicle: suspension in saline",60 % of control
same,T/C,"dose: 10.0 mg/kg/injection, schedule: Q04DX003 (ip), vehicle: suspension in saline",44 % of control
same,T/C,"dose: 20.0 mg/kg/injection, schedule: Q04DX003 (ip), vehicle: saline",104 % of control
same,T/C,"dose: 20.0 mg/kg/injection, schedule: Q04DX003 (ip), vehicle: suspension in saline",102 % of control
same,T/C,"dose: 40.0 mg/kg/injection, schedule: Q04DX003 (ip), vehicle: saline",26 % of control
CO[C@H](/C(C)=C/C=C/C(C)=C/c1coc(C)n1)[C@H](C)[C@H]1C[C@@H](O)[C@@]2(C)O[C@H]2/C=C/[C@@H](C)[C@@H]2C[C@@H](CC(=O)O2)C[C@H]2O[C@@H]2C(=O)O1,T/C,"dose: 0.07 mg/kg/injection, schedule: Q04DX003 (ip), vehicle: other",71 % of control
same,T/C,"dose: 0.12 mg/kg/injection, schedule: Q04DX003 (ip), vehicle: other",54 % of control
same,T/C,"dose: 0.13 mg/kg/injection, schedule: Q01DX009 (ip), vehicle: Klucel (hydroxypropylcellulose) (HPC)",54 % of control
same,T/C,"dose: 0.18 mg/kg/injection, schedule: Q04DX003 (ip), vehicle: Klucel (hydroxypropylcellulose) (HPC)",57 % of control
same,T/C,"dose: 0.2 mg/kg/injection, schedule: Q01DX009 (ip), vehicle: Klucel (hydroxypropylcellulose) (HPC)",15 % of control
same,T/C,"dose: 0.2 mg/kg/injection, schedule: Q04DX003 (ip), vehicle: other",86 % of control
same,T/C,"dose: 0.3 mg/kg/injection, schedule: Q01DX009 (ip), vehicle: Klucel (hydroxypropylcellulose) (HPC)",38 % of control
same,T/C,"dose: 0.3 mg/kg/injection, schedule: Q04DX003 (ip), vehicle: Klucel (hydroxypropylcellulose) (HPC)",41 % of control
same,T/C,"dose: 0.33 mg/kg/injection, schedule: Q04DX003 (ip), vehicle: other",21 % of control
same,T/C,"dose: 0.5 mg/kg/injection, schedule: Q04DX003 (ip), vehicle: Klucel (hydroxypropylcellulose) (HPC)",26 % of control
same,T/C,"dose: 0.83 mg/kg/injection, schedule: Q04DX003 (ip), vehicle: Klucel (hydroxypropylcellulose) (HPC)",21 % of control
CC1Oc2cc3c(-c4c(O)cc(O)c5c(O)c6c(cc45)OC(C)C(C)C6=O)c(O)cc(O)c3c(O)c2C(=O)C1C (stereo not given),T/C,"dose: 0.19 mg/kg/injection, schedule: Q04DX003 (ip), vehicle: suspension in saline",60 % of control
same,T/C,"dose: 0.38 mg/kg/injection, schedule: Q04DX003 (ip), vehicle: suspension in saline",51 % of control
same,T/C,"dose: 0.75 mg/kg/injection, schedule: Q04DX003 (ip), vehicle: suspension in saline",83 % of control
same,T/C,"dose: 3.0 mg/kg/injection, schedule: Q04DX003 (ip), vehicle: suspension in saline",63 % of control
same,T/C,"dose: 6.0 mg/kg/injection, schedule: Q04DX003 (ip), vehicle: suspension in saline",77 % of control
O=C(O)c1cc(C(=O)O)c(C(=O)O)cc1C(=O)O.[NH2-].[NH2-].[NH2-].[NH2-].[Pt+2].[Pt+2],T/C,"dose: 12.5 mg/kg/injection, schedule: Q04DX003 (ip), vehicle: water",102 % of control
CCOC1NC(=O)Oc2ccccc21 (stereo not given),T/C,"dose: 150.0 mg/kg/injection, schedule: Q04DX003 (ip), vehicle: Klucel (hydroxypropylcellulose) (HPC)",43 % of control
same,T/C,"dose: 600.0 mg/kg/injection, schedule: Q04DX003 (ip), vehicle: Klucel (hydroxypropylcellulose) (HPC)",54 % of control
C/C(=N\NC(=S)N1CC2CCC(CC2)C1)c1nccs1,T/C,"dose: 12.5 mg/kg/injection, schedule: Q04DX003 (ip), vehicle: saline with Tween-80",62 % of control
same,T/C,"dose: 25.0 mg/kg/injection, schedule: Q04DX003 (ip), vehicle: saline with Tween-80",47 % of control
same,T/C,"dose: 50.0 mg/kg/injection, schedule: Q04DX003 (ip), vehicle: saline with Tween-80",32 % of control
O=C(O)C1CC(O)CN1 (stereo not given),T/C,"dose: 150.0 mg/kg/injection, schedule: Q04DX003 (ip), vehicle: saline",70 % of control
same,T/C,"dose: 300.0 mg/kg/injection, schedule: Q04DX003 (ip), vehicle: saline",65 % of control
same,T/C,"dose: 600.0 mg/kg/injection, schedule: Q04DX003 (ip), vehicle: saline",110 % of control
same,T/C,"dose: 1200.0 mg/kg/injection, schedule: Q04DX003 (ip), vehicle: saline",71 % of control
